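A five-concentration, 48-hour dose response in 96-well plates underlies each endpoint, interpolated linearly between surrounding concentrations. GI50 = concentration required for 50% inhibition of growth.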 The source made the active and inactive calls. No stated cut-off is given here; in the data, active = GI50 up to about 1.1 µM and inactive = higher.

What all share (assay): growth of human tumour cells (NCI), 48 h
The subject of assay [1] is SNB-75.
Assay [2] deals with NCI-H23.
For assay [3], the system named is MDA-MB-231.
For assay [4], the system named is MCF7.
For assay [5], the system named is OVCAR-8.
The subject of assay [6] is DU-145.
The subject of assay [7] is RPMI-8226.
Assay [8] has as its system SK-MEL-28.
Assay [9] deals with Hs-578T.
In assay [10] the test system is ACHN.
The subject of assay [11] is UACC-257.
The test system of assay [12] is BT-549.
Assay [13] concerns HT-29.
For assay [14], the system named is HOP-92.
Assay [15] deals with 786-0.
The test system of assay [16] is HOP-18.
The test system of assay [17] is M14.
Assay [18] has as its system U-251.
Assay [19] relates to IGROV-1.
The subject of assay [20] is NCI-H522.

`Cc1c2ccncc2cc2c1sc1ccncc12`: the GI50 in assay [1] was 3800 nM (inactive); in assay [2], 2510 nM (inactive); in [3], 3570 nM (inactive); in [4], 410 nM (active); in assay [5] it was 2610 nM (inactive); in assay [6], 1970 nM (inactive). In addition, the GI50 in [7] was 993 nM (active); in [8], 5820 nM (inactive); in assay [9], 2390 nM (inactive); in assay [10] it was 1060 nM (active); in assay [11] it was 3850 nM (inactive); in assay [12], 2490 nM (inactive). Besides, the GI50 in assay [13] was 2730 nM (inactive); in [14], 8220 nM (inactive); in assay [15], 2060 nM (inactive); in [16], 7710 nM (inactive); in assay [17], 4530 nM (inactive); in assay [18], 2220 nM (inactive). Further, the GI50 in [19] was 3470 nM (inactive); in assay [20], 2140 nM (inactive).

Values taken from ChEMBL document CHEMBL1201862, “PubChem BioAssay data set” (2004).
